Laboratory results from US20240316513A1, “METHOD AND APPARATUS FOR ON-SITE PREPARATION AND DOSING OF AN ENZYME-CONTAINING DETERGENT FORMULATION” (CHRISTEYNS, priority 2021, published 2024).

What follows are substances tested against T1, lipase enzyme (Thermomyces lanuginosus, UniProt O59952, N255R/T253R) (assay: Effect of surfactant concentration on lipase activity in the washing liquor). Conditions: not given.
T1 construct: purchased Novozymes LIPEX 100 L
Format: biochemical
Procedure: (§1) The total hydrolysis of rapeseed oil in a wash process was tested with washing liquors that were always comprising the same concentration of a lipase enzyme concentrate. A blank test was performed without any added surfactant. This blank test served as the reference with which could be compared the other results obtained with the same washing liquor samples into which one of a number of different non-ionic surfactants were added.
(§2) For each liquor was tested the appearance of free oleic acid generated from the hydrolysis of a standard amount of rapeseed oil with which the liquor was brought in contact. Monitored by High Performance Liquid Chromatography (HPLC) was the quantitative release of free oleic acid (C18:1 fatty acid) in the washing liquor and/or present on the textile, as explained in the protocols that are described in detail in our copending patent application having the attorney docket reference PAT2549761 EP00 and filed on the same day as this application. Because oleic acid is the main fatty acid in the triglycerides of rapeseed oil, the generation of this acid as free fatty acid it is an excellent quantitative marker for the hydrolysis of rapeseed oil, in this context thus also for the activity of the lipase enzyme.
Extra experiments were performed with 5EO-isoC13 surfactant.

T1 sequence (O59952 23-291 T253R/N255R): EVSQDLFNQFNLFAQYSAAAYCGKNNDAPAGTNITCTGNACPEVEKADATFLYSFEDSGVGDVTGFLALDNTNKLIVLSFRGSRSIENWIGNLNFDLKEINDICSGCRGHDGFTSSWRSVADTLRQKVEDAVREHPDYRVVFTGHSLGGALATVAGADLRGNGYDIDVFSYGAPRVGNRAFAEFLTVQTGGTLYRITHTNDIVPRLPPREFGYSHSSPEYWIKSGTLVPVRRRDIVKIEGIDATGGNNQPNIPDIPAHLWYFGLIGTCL

**Q.** For 5EO-isoC13, which “surfactant concentration at which the suppressing activity on lipase becomes noticeable” value is on record?
**A.** Its value is 10 ppm by weight.

**Q.** What about the “surfactant concentration until which the suppressing effect further grows” value of the same substance?
**A.** Its value is “about 100 ppm by weight”.

Same assay, conditions: from about 100 up to 250 ppm by weight surfactant

**Q.** Which “suppressing effect when further increasing the surfactant presence” value does the source give for 5EO-isoC13 here?
**A.** Its value is “remains about the same”.

The substances below were run against T1, lipase enzyme (assay: Total hydrolysis of rapeseed oil in a wash process: effect of surfactants on lipase enzyme activity (free oleic acid by HPLC)). Conditions: about 100 ppm by weight surfactant; about 0.2 g/litre lipase concentrate; pH about 9.6; about 50° C.; 2° fH; compared with blank and LES (Sample C).
Format: biochemical
Procedure: as §1
In the experiments, the lipase concentrate was always present in a concentration of about 0.2 gram of the concentrate per litre of total liquor.
The washing tests were performed at a temperature of about 50° C. The water in the formulations was demineralised water obtained by reverse osmosis (RO).
Different washing liquors were prepared containing about 100 ppm by weight of a selected surfactant, to be compared with a blank liquor containing only the lipase enzyme concentrate and no surfactants.
as §2
A series of tests were performed using washing liquors having a hardness of 2° fH. […] For each surfactant choice 2 duplicate samples were tested, except for Sample J (3 duplicates) and Sample K (only 1 sample tested). […] Also shown for each bar with a surfactant is an error bar showing the difference between the lowest and the highest of the duplicates.

**Q.** How did the “effect of the surfactant on lipase activity in the washing liquor (in words)” value (shortened to “effect of the surfactant”) turn out when “a mixture of linear C13-C15 alcohol that has been ethoxylated to an average degree of about 3” was run?
**A.** The value was “relatively benign”.

**Q.** Which “effect of the surfactant” value does the source give for C8-C10 APG-DP of 1.7 [Sample K] here?
**A.** Its value is “much lower depressing effect”.

**Q.** How did the “effect of the surfactant” value turn out when “C8-C10 alkyl polyglucoside (APG) with an average degree of polymerisation (DP) of 1.5” was run?
**A.** Its value is “much lower depressing effect”.

**Q.** For C12-C14 amine oxide [P], which “effect of the surfactant” value is on record?
**A.** The value was “significant boost”.

**Q.** Which “effect of the surfactant” value does the source give for C8-C16 APG-DP of 1.5 [Sample J] here?
**A.** The value was “much lower depressing effect”.

**Q.** Which “effect of the surfactant” value does the source give for “C9-C11 fatty alcohol alkoxylated with an average ethoxylation degree of about 6 and an average propoxylation degree of about 4 [Sample O]” here?
**A.** The value was “worse than the LES reference”.

**Q.** How did the “effect of the surfactant” value turn out when 7EO-C13-15 [N] was run?
**A.** Its value is “much larger depressing effect”.

**Q.** How did the “effect of the surfactant” value turn out when “isotridecyl alcohol ethoxylated to an average degree of ethoxylation of about 3” was run?
**A.** Its value is “not better than the conventional LES surfactant”.

**Q.** For 7EO-isoC13 [F], which “effect of the surfactant” value is on record?
**A.** The value was “not better than the conventional LES surfactant”.

**Q.** Which “effect of the surfactant” value does the source give for 9EO-isoC13 [G] here?
**A.** Its value is “not better than the conventional LES surfactant”.

**Q.** How did the “effect of the surfactant” value turn out when 10EO-isoC13 [H] was run?
**A.** The value was “not better than the conventional LES surfactant”.

**Q.** How did the “effect of the surfactant” value turn out when 5EO-C13-C15 [M] was run?
**A.** The value was “relatively benign”.

**Q.** 5EO-isoC13 was tested. Which “effect of the surfactant” value did it give?
**A.** The value was “not better than the conventional LES surfactant”.

Same assay, conditions: about 100 ppm by weight surfactant; about 0.2 g/litre lipase concentrate; pH about 9.6; about 50° C.; hardness 2° fH

**Q.** With “Linear Alkyl Benzene Sulphonate [Sample B]” as the substance, how does the “lipase activity relative to the blank liquor (A), set at 100%” value read?
**A.** Its value is 12%.

**Q.** How did the “lipase activity relative to the blank liquor (A), set at 100%” value turn out when Lauryl ether sulphate [Sample C] was run?
**A.** Its value is “about 40%”.
